Measured values taken from doi:10.1101/318345v1, “Three enzymes and one substrate; regulation of flux through the glyoxylate shunt in the opportunistic pathogen, Pseudomonas aeruginosa” (biorxiv, 2018).

Experiments:
ICL = target: T1, ICL (Pseudomonas aeruginosa, UniProt Q9I0K4); experiment: ICL activity, spectrophotometric; assay type: biochemical; conditions: for Ki': uncompetitive, inhibitor at 1 mM, 37 °C, substrate isocitrate
T1 construct: gene PA2634; full length, 531 residues, 59 kDa; His6-MBP fusion from E. coli DH5alpha, tag cleaved with Factor Xa; tetramer
T1 sequence (Q9I0K4 1-531): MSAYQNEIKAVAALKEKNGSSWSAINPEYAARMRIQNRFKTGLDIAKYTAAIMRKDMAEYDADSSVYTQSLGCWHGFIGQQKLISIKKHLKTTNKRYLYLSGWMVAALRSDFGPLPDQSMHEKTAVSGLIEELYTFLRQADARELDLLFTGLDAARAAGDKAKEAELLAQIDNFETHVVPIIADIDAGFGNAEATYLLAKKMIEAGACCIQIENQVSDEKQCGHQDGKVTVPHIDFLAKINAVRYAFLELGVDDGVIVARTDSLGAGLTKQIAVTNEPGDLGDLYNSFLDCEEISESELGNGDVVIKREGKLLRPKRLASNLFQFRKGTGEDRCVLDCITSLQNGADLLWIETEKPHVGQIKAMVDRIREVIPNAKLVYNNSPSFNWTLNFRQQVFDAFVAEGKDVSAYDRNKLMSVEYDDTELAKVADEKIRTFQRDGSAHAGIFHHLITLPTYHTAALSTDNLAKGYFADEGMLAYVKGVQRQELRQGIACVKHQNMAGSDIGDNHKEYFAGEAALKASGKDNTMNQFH
From the text: ICL activity, spectrophotometric on ICL

IDH [1] = target: T2, IDH (Pseudomonas aeruginosa, UniProt Q9I0L4); experiment: isocitrate dehydrogenase activity, NADPH at […] nm; assay type: biochemical; conditions: activator at 1 mM, V-type allosteric; 5 mM MgCl2, pH 7.5, 37 °C
T2 construct: full length, 82 kDa; His6-MBP fusion from E. coli DH5alpha, tag cleaved with Factor Xa
T2 sequence (Q9I0L4 1-741): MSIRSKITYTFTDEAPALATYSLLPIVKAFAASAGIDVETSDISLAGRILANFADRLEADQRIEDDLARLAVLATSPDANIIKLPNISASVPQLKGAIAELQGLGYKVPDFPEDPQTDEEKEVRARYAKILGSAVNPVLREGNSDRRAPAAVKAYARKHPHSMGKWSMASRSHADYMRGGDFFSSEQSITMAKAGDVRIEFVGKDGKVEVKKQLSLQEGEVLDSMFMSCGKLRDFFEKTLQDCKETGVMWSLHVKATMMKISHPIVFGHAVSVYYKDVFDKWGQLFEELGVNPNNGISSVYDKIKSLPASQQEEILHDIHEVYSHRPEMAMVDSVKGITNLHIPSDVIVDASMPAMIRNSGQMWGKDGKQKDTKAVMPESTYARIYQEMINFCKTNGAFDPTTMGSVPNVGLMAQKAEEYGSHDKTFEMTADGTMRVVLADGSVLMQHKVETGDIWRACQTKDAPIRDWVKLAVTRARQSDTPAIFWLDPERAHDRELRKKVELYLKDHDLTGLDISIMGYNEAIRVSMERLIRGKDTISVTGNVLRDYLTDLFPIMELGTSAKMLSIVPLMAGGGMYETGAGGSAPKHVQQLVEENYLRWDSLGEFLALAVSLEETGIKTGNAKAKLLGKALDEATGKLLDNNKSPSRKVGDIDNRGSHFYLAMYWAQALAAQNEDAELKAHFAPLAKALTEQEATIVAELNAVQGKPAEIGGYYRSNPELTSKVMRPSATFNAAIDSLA

ICD = target: T3, ICD (Pseudomonas aeruginosa, UniProt Q9I0L5); experiment: isocitrate dehydrogenase activity, NADPH at […] nm; assay type: biochemical
T3 construct: full length, 45 kDa; His6-MBP fusion from E. coli DH5alpha, tag cleaved with Factor Xa; dimer
T3 sequence (Q9I0L5 1-418): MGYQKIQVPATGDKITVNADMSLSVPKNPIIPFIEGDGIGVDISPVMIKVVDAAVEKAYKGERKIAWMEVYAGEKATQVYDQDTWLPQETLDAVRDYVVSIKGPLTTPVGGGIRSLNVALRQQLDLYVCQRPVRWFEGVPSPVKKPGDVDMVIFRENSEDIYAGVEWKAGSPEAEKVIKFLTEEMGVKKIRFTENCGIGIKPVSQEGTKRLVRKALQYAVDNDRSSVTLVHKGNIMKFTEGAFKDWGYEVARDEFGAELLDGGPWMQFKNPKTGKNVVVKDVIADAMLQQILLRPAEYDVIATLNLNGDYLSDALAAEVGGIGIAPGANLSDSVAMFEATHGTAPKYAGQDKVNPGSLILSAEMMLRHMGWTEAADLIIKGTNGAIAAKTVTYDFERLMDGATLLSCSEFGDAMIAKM

IDH [2] = target: T2, IDH; experiment: X-ray crystal structure, […] Å; assay type: binding; conditions: chain A, with NADP
AceKPA = target: T4, AceKPA (Pseudomonas aeruginosa, UniProt Q9I3W8); experiment: AceK phosphatase coupled to ICD reactivation; assay type: biochemical; conditions: activator of phosphatase at 5 mM; ICD from P. aeruginosa as protein substrate; 1 mM ATP, 2 mM MgCl2, pH 7.0, 37 °C
T4 construct: gene aceK; His6-tagged from pET-19m, tag cleaved with TEV protease
T4 sequence (Q9I3W8 1-577): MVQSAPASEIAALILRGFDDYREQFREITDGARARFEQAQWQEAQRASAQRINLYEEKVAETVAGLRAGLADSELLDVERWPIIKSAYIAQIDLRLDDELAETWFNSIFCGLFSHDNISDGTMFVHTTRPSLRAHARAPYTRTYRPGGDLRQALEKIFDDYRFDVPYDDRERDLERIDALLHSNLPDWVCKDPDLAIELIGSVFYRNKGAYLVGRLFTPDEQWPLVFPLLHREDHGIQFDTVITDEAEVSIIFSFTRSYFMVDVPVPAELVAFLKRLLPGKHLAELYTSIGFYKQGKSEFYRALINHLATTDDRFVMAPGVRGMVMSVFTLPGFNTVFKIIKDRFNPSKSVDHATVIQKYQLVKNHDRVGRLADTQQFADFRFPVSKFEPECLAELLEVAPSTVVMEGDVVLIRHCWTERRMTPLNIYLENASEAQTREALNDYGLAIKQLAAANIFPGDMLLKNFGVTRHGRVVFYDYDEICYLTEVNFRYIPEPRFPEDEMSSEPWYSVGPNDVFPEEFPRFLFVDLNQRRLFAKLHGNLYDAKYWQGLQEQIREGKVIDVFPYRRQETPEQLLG
T4 sequence (Q9I0L5 1-418 partner): T3 sequence (Q9I0L5 1-418)

[3] = text b11 prints a different value (0.6 mM)

In the case of `O=C(O)CC(=O)O` [malonic acid], the “Ki'” value (ICL) is reported as 2900 µM.

Compound `CC(C)(COP(=O)(O)OP(=O)(O)OC[C@H]1O[C@@H](n2cnc3c(N)ncnc32)[C@H](O)[C@@H]1OP(=O)(O)O)[C@@H](O)C(=O)NCCC(=O)NCCS` [coenzyme A] has a Ki (ICL) of 3900 µM.

`O=C(O)CC(=O)C(=O)O` [oxaloacetate] gave a Ki (ICL) of 1400 µM.

`C=C(CC(=O)O)C(=O)O` [itaconic acid] was tested, and the “Ki'” value (ICL; text b11 prints a different value (0.5 mM)) was 900 µM.

With `O=C(O)CCC(=O)O` [succinate] the “Ki'” value (ICL; [3]) was 900 µM.

`CC(=O)C(=O)O` [pyruvate] was tested, and the “isocitrate dehydrogenase activity, NADPH at 340 nm” value (IDH [1]) was “pyruvate and oxaloacetate were far more potent regulators” and the Ki (ICL) was 1700 µM.

With `O=C(O)C[C@H](O)C(=O)O` [malic acid] the Ki (ICL) was 4400 µM.

Work on `O=C(O)CO` [glycolic acid] yielded a Ki (ICL) of 1800 µM.

With `O=C(O)CCC(=O)C(=O)O` [α-ketoglutarate] the Ki (ICD) was 666 µM and the “X-ray crystal structure, 2.7 Å” value (IDH [2]) was “(designated chain A) contained bound α-ketoglutarate and NADP”.

In the case of `O=C(O)/C=C/C(=O)O` [fumarate], the “AceK phosphatase coupled to ICD reactivation” value (AceKPA) is reported as “fumarate was the most potent activator of the phosphatase in AceKPA”.

`O=C(O)CC(O)(CC(=O)O)C(=O)O` [citrate] was tested, and the Ki (ICL) was 15800 µM.

For `O=C(O)CC[N+](=O)[O-]` [nitropropionic acid], the “Ki'” value (ICL; [3]) was 1000 µM.
